Inhibition data for 1 molecule are collected here from ChEMBL document CHEMBL4229375, “Towards new antibiotics targeting bacterial transglycosylase: Synthesis of a Lipid II analog as stable transition-state mimic inhibitor” (Bioorg Med Chem Lett, 2018).

The target of this assay is Bacterial penicillin-binding protein (Bacteria) (UniProt P24228+P0AD68+P02918+P02919+P0AEB2+P0AD65+P08506). The assay is described as follows: Inhibition of Acinetobacter baumannii PBP transglycosylase activity at 50 uM using NBD-labeled lipid 2 as substrate after 30 mins by N-acetylmuramidase enzyme coupled HPLC analysis relative to control. The class given is protein assay.

For the molecule `CC(=O)N[C@H]1[C@H](O[C@H]2[C@H](O)[C@H](O)[C@@H](CP(=O)(O)OP(=O)(O)OC/C=C(\C)CC/C=C(/C)CC/C=C(\C)CCC=C(C)C)N[C@@H]2CO)O[C@H](CO)[C@@H](O)[C@@H]1O`, the inhibition turned out to be 70%.
